{
  "source": "patent US8741836B2",
  "about": "“Polypeptides” (Novo Nordisk A/S, priority 2011, dated 2014)",
  "key": {"[1]": {"molecular_target": "T1, rat amylin 3(a) receptor (rat calcitonin(a) receptor+rat RAMP3) (Rattus norvegicus, UniProt P32214+Q9JJ73)", "T1 construct": "expressed in transfected cells; host or cells: BHK tk'ts 13 (transient, FuGENE 6)", "T1 sequence (P32214 25-479 isoform P32214-2 limits assumed)": "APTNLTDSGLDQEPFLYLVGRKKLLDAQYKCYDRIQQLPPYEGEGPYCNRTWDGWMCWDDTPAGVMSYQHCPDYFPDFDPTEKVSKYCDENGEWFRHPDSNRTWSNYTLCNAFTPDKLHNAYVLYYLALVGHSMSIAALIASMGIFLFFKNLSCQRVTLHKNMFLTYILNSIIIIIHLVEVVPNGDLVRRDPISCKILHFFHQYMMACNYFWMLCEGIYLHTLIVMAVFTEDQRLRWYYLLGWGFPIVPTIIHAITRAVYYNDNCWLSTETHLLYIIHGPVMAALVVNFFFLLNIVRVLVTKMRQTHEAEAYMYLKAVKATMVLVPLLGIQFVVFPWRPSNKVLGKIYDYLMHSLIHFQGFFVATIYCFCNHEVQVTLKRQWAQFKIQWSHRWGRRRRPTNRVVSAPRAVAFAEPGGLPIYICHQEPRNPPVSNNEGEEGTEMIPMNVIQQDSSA", "T1 sequence (Q9JJ73 24-147 partner limits assumed)": "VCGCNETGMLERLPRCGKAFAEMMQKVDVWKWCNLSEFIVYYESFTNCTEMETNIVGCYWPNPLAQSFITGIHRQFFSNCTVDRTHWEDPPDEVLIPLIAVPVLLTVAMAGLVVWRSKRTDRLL", "assay": "Assay (II)b functional assay, rat amylin receptor (cAMP FlashPlate)", "assay_type": "cell-based", "conditions": "Table 11", "excerpt": "Assay (II)b—Rat Calcitonin and Rat Amylin Receptor Assays\nActivation of calcitonin and amylin (coexpression of calcitonin receptor and receptor activity modifying proteins (RAMP)) receptors lead to increased intracellular concentrations of cAMP. In order to quantify the cAMP levels in transiently transfected cells the Adenylyl Cyclase Activation FlashPlate® Assay from Perkin Elmer was used. The basic principle of the FlashPlate® Assay is a competition between radioactive and non-radioactive cAMP generated by the cells for a fixed number of binding sites.\nConstruction of Rat Calcitonin(a)- and Rat Amylin 3(a)-Receptor Cells.\nBHK tk'ts 13 cells were transiently transfected with either rat calcitonin (a) receptor or amylin 3 (a) receptor (rat calcitonin(a) receptor+rat RAMP3) using FuGENE® 6 (Roche), according to the manufacturers recommendations.\n24 hours after transient transfection the cells (rat calcitonin(a)- or rat amylin 3(a)-receptor cells) were added (100.000 cells/well) to the 96 well FlashPlates® with samples or standard in FlashPlate stimulation buffer with IBMX and incubated for 30 min. Detection mix was created according to manufacturers protocol and scintillation measured after 3 h of incubation on TopCounter™ (Packard)."}, "[2]": {"assay": "Assay (III) ThT fibrillation assay for physical stability", "assay_type": "physicochemical", "outline": "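Freshly prepared, pH-adjusted formulations with 1 μM ThT incubated at 37 °C under 960 rpm orbital shaking (1 mm), fluorescence (ex 444, em 485 nm) read every 20 min. […] Peptide content before and after measured by reverse-phase HPLC against pramlintide standard.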"}},
  "note": "Starred links: 1 amine or outer side, 2 acyl side, 3 side chain; linkers in the order of their positions; H or OH if unused. Positions of bridges follow the written chain, without caps; N, C: chain ends. Residues, ends and D or L forms follow the SMILES beside them. Groups on a side chain read outwards from the residue. *: point of attachment. C18 diacid = O=C(O)CCCCCCCCCCCCCCCCC(=O)*; γGlu = O=C(O)[C@H](CCC(=O)[*:2])N[*:1]; AEEA = NCCOCCOCC(=O)O",
  "data": [
    {"smiles": "CC[C@H](C)[C@H](NC(=O)[C@@H]1CCCN1C(=O)CNC(=O)[C@H](Cc1ccccc1)NC(=O)[C@H](CC(N)=O)NC(=O)[C@H](CCCCNC(=O)COCCOCCNC(=O)COCCOCCNC(=O)CC[C@H](NC(=O)CCCCCCCCCCCCCCCCC(=O)O)C(=O)O)NC(=O)[C@H](CO)NC(=O)[C@H](CO)NC(=O)[C@H](Cc1c[nH]cn1)NC(=O)[C@H](Cc1c[nH]cn1)NC(=O)[C@H](CC(C)C)NC(=O)[C@H](Cc1ccccc1)NC(=O)[C@H](CCC(=O)O)NC(=O)[C@H](C)NC(=O)[C@H](CC(C)C)NC(=O)[C@H](CCCNC(=N)N)NC(=O)[C@H](CCC(N)=O)NC(=O)[C@@H](NC(=O)[C@H](C)NC(=O)[C@@H]1CSSC[C@H](NC(=O)[C@@H](N)CCCCN)C(=O)N[C@@H](CC(N)=O)C(=O)N[C@@H]([C@@H](C)O)C(=O)N[C@@H](C)C(=O)N[C@@H]([C@@H](C)O)C(=O)N1)[C@@H](C)O)C(=O)N[C@@H](CC(C)C)C(=O)N1CCC[C@H]1C(=O)N1CCC[C@H]1C(=O)N[C@H](C(=O)N[C@@H](CC(N)=O)C(=O)N[C@H](C(=O)NCC(=O)N[C@@H](CO)C(=O)N[C@@H](CCC(=O)O)C(=O)N[C@H](C(=O)N[C@@H](Cc1ccc(O)cc1)C(N)=O)[C@@H](C)O)C(C)C)[C@@H](C)O", "note": "[Example 74, N-epsilon21-[2-(2-{2-[2-(2-{2-[(S)-4-Carboxy-4-(17-carboxyheptadecanoylamino)butyrylamino]ethoxy}ethoxy)acetylamino]ethoxy}ethoxy)acetyl]-[Glu14,His17,Lys21,Glu35]-pramlintide] (H-KCNTATCATQRLAEFLHHSSK([AEEA-AEEA-γGlu-C18 diacid])NFGPILPPTNVGSETY-NH2; disulfide 2-7 (inferred); N-terminus and C-terminus assumed)", "values": [
      {"measurement": "EC50", "setting": "[1]", "result": 0.504, "unit": "nM"},
      {"measurement": "ThT pH 4.0 lag time (physical stability in fibrillogenesis assay)", "setting": "[2]; pH 4.0", "result": ">45", "unit": "h"},
      {"measurement": "ThT pH 4.0 lag time", "setting": "[2]; pH 4.0, ThT fibrillation assay", "result": ">45", "unit": "h"}
    ]}
  ]
}
